We go through 1 molecule from US20260237072A1, “FUNCTIONAL RESPIRATORY IMAGING ANALYSIS OF SERALUTINIB FOR THE TREATMENT OF PULMONARY ARTERIAL HYPERTENSION (PAH)” (GB002, INC., priority 2023, published 2026).

“And” between values parts separate entries of the source, which are not always exact repeats. Equal values may be shown once.

For assay [1], the system named is PAH patients. Put plainly: Clinical study: functional respiratory imaging (chest CT, automated pulmonary vascular segmentation) of pulmonary arterial blood vessel volume distribution. It is filed as in vivo, human. Here is the method:
(§1) A clinical study was undertaken to examine the effect of Seralutinib on pulmonary arterial blood vessel volume distribution in PAH patients. Seralutinib was administered twice daily (BID) for 24 weeks, via dry powder inhalation, to PAH patients (WHO Group I, functional class II or III). Thin-section, volumetric non-contrast chest CTs were obtained (at baseline and week 24, minimum of 64 slices), followed by automated pulmonary vascular segmentation to evaluate the reverse remodeling potential of seralutinib.
From the scans, paired inspiratory-expiratory high-resolution non-contrast computer tomography studies were performed and the lobar tissue, airways and vasculature were reconstructed. Vasculature volumes are provided as a total blood volume (BV), and as BVX values, which divide the pulmonary blood volume depending on the size vessel in which the blood is contained, wherein:
Blood vessel volumes (BVV) of pulmonary arteries with a CSA<5 mm^2 (BV5A) and >10 mm^2 (BV10A) were calculated, and the BV5A to BV10A ratio (BV510ARATIO) was used to express relative redistribution of pulmonary arterial blood vessel volume. Linear regression was used to model the treatment effect.
(§2) Baseline and Week 24 CTs were obtained in 19 subjects (7 receiving seralutinib, 12 receiving placebo), mean age 49±12 years, 18 were female, as presented in Tables 1 and 2. All subjects were receiving two or three approved PAH-specific medications.
(§3) Case study 2 was of a person with WHO functional class II idiopathic PAH+severe rheumatoid arthritis receiving approved PAH Triple Therapy (ERA+PDE-5i+PRA).

Assay [2] deals with PAH patients. Put plainly: Clinical study: change from baseline to week 24 in clinical parameters (PVR, MPAP, PAC, 6MWD, NTproBNP). It is filed as in vivo, human. More on the design: MPAP Change / 6MWD change / NTproBNP change: unit not given here. Here is the method: as §1, §2, §3
The mark [3] stands for this setting: Case Study 2, baseline to week 24, lung images.
Setting [4] is: treatment effect vs placebo, week 24, linear regression.
Setting [5] is: individual PAH patient, baseline to week 24, BID dry powder inhalation.

Take `COc1ccc(-c2cncc(N[C@@H](C)c3cccc(NC(=O)c4cncc(C)c4)c3)n2)cc1OC` [Seralutinib, N-{3-[(1S)-1-{[6-(3,4-dimethoxyphenyl)pyrazin-2-yl]amino}ethyl]phenyl}-5-methylpyridine-3-carboxamide]: in assay [1] (setting [3]), the BV5A/BV10A ratio result was “Increase”, the “Decrease in BV10APRA” value amounted to 8% and the “Increase in BV5APRA” value was 6%. Further, in assay [1] (Case Study 2, week 24), the “BV5A PRA (%)*” value was “+5.6%”, the “BV10A PRA (%)*” value is reported as −7.7% and the “BV510A RATIO” value was “+2.5”. The “redistribution of pulmonary arterial blood vessel volume to more distal vessels” value in assay [1] (subjects with PAH on dual or triple PAH therapies, seralutinib added) is listed as “significant redistribution”. Further, in assay [1] (setting [4]), the “BV5APRA regression model effect estimate” value was 2.625, the “BV5PR regression model effect estimate” value was 1.835, the “BV10APRA regression model effect estimate” value was −2.711 and the “BV10PR regression model effect estimate” value is listed as −2.180. For the same molecule, the “BV510RATIO regression model effect estimate” value in assay [1] (setting [4]) is 0.843. In addition, in assay [1] (treatment effect vs placebo, week 24, linear regression, 7 seralutinib, 12 placebo), the “BV510ARATIO regression model effect estimate” value is 0.845. The “least squares mean difference value of the BV510ARatio” value in assay [1] (vs placebo, 95% CI 0.105, 1.585, p-value 0.028) is 0.845. Besides, the “BV510A Ratio in the seralutinib group compared to placebo” value in assay [1] (week 24, p=0.028) is recorded as “significantly higher”. In assay [2] (Case Study 2, baseline to week 24), the “PVR coincident with arterial volume shifts” value is “Improvement”. In assay [2] (Case Study 2, week 24), this molecule registered a 6MWD change of −48 and an NTproBNP change of 41. In assay [2] (Case Study 2, week 24, PVR baseline 408), this molecule displayed a PVR Change of −159. For the same molecule, in assay [2] (setting [5]), the “MPAP Change” value is −4 and −3 (2×) and −8 and 3 and −2; the “PAC Change (pulmonary arterial compliance)” value was 0.65 and 0.24 and 0.85 and 0.31 and 0.11 and 0.32; the “PVR Change” value is −159 and −11 and −52 and −235 and −139 and −171.
